The target in data set [1] is T1, porcine kidney dehydropeptidase I (Sus scrofa, UniProt P22412).
T1 construct: Frozen porcine kidney cortex was homogenized; from tissue; host or cells: porcine kidney cortex
T1 sequence (P22412 17-409): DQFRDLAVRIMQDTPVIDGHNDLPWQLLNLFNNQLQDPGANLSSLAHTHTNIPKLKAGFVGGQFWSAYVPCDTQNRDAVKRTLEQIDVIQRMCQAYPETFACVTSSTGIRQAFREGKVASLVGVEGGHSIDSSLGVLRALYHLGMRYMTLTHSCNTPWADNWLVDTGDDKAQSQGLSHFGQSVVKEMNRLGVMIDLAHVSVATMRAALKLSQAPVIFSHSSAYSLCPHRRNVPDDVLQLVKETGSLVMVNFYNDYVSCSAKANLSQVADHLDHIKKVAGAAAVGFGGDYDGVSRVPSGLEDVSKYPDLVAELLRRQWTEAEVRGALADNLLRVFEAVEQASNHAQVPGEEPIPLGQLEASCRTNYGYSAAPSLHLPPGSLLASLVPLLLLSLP
Briefly: Inhibitory activity on porcine kidney dehydropeptidase I (DHP-I). It is filed as biochemical. As for the experimental part:
(1) Inhibitory activity on porcine kidney dehydropeptidase I
(i) Purification of porcine dehydropeptidase I
Frozen porcine kidney cortex was homogenized. Butanol (1/4 volume) pre-cooled in a dry ice-acetone bath was added to the homogenate, and the mixture was stirred at 4° C. for 43 hours. The mixture was then dialyzed for one day and centrifuged at 3,000 g for 30 minutes. To the resulting supernatant was added ammonium sulfate. A precipitate at the salt concentration range between 50 and 75% was collected to give a crude enzyme preparation which was re-dissolved in a 50 mM MOPS buffer containing 0.5 M NaCl. The solution was charged on a cilastatin affinity column. Elution with a 50 mM MOPS buffer containing 0.5 M NaCN gave a purified enzyme preparation.
(ii) Measurement of inhibitory activity
The resulting enzyme preparation (3 mU) and an inhibitor were pre-incubatedat 37° C. for 3 hours in 2.7 ml of a 50 mM MOPS buffer (pH 7.4), and then 2.475 ml of the mixture was transferred into a cuvette. As a substrate, 25 microliters of a 5 mM glycyldehydrophenylalanine solution in a 50 mM MOPS buffer (pH 7.4) was added to start an enzymic reaction. The reaction was carried out at 37° C. in a spectrophotometer fitted with a constant-emperature device, and a decrease of the absorbance at 275 nm during a period of 5 minutes was measured. […] An IC50 value was calculated from the percent inhibition data.
One unit (U) is defined as the amount of the enzyme which hydrolyzes 1 micromole of the substrate (glycyldehydrophenylalanine) per minute at a substrate concentration of 0.05 mM at 37° C. in a 50 mM MOPS buffer (pH 7.4).

A short description of data set [2]: Effect on urinary recovery of carbapenem (imipenem) in rats. The data set is classed as in vivo, Male SD rats. The following applies: inhibitor 10 mg/kg iv with imipenem 10 mg/kg iv, urine up to 8 hours, n = 3. As for the experimental part: (2) Effect on urinary recovery of carbapenem
Male SD rats (8 week-old) were grouped, three per group. Imipenem alone was intravenously administered in a dose of 10 mg/kg to a first group. […] For comparison, a combination of imipenem (10 mg/kg) and cilastatin (10 mg/kg) was intravenously administered to a fourth group.
The urinary recovery of imipenem was calculated.

A short description of data set [3]: Pharmacokinetic evaluation: plasma concentration in rats. The data set is classed as in vivo, Male SD rats. The following applies: in vivo, rat, iv 10 mg/kg (cilastatin dose not given). As for the experimental part: (4) Pharmacokinetic evaluations
Male SD rats ([…]) were divided into groups each consisting of three animals. […] Furthermore, cilastatin was intravenously administered to a 14th group as a control group.
Plasma samples were taken periodically from the carotid artery through a cannula inserted into it at the points of 1/12, 1/4, 1/2, 1, 2, 4, 6, 8 and 24 hours after the administration.
The area under the curve (AUC) of the plasma concentration was determined according to the trapezoidal rule.

In data set [4] the test system is DHP-I. The following applies: in words, cited from earlier work.
The mark [5] stands for this setting: DHP-I inhibitory compounds of cited literature including cilastatin.

As a reminder, the IC50 is the concentration that gives 50% inhibition. Lower therefore signals inhibition by little substance. In general, AUC refers to the area under the concentration-time curve, a measure of exposure. A lower AUC goes with less exposure.

In turn, `CC1(C)C[C@@H]1C(=O)N/C(=C\CCCCSC[C@H](N)C(=O)O)C(=O)O` [Cilastatin, reference compound] yielded an IC50 in data set [1] of 0.1 µM. Also, in data set [2], the “Urinary recovery of imipenem, Mean ± S.D.” value is recorded as 85.9 ± 2.9%. Moreover, the AUC in data set [3] (trapezoidal rule) was determined as 12 µg·h/mL. Besides, in data set [3] (1/2 h), the concentration at 0.5 h worked out at 5.8 µg/mL. Moreover, the concentration at 0.25 h in data set [3] (1/4 h) amounted to 18.8 µg/mL. In data set [3] (1/12 h), this compound yielded a concentration at 5 min of 46.9 µg/mL. For the same compound, in data set [4] (setting [5]), the “Activity in oral administration” value is given as “do not show sufficient activity in oral administration” and the Duration of action result is given as “do not always have satisfactory duration of action”. Further, in data set [4] (combined use with imipenem), the “Effect on potential renal toxicity of imipenem” value is listed as “prevent its potential renal toxicity” and the “Effect on urinary recovery of imipenem” value is “greatly improve urinary recovery of imipenem”. Also, the Oral absorption entry in data set [4] is “not orally absorbable”.

The values above are taken from patent US4988681A, “Phosphinic acid derivatives” (Banyu Pharmaceutical Co., Ltd., priority 1988, dated 1991).
